From publication PMC10787893, “Expression and characterization of the new antimicrobial peptide AP138L-arg26 anti Staphylococcus aureus” (Applied Microbiology and Biotechnology, 2024)
≈ marks a conversion by molar mass, not a printed value. Where a name gives a salt, the structure may show the parent alone. Read-outs that look alike come from different tables or passages of the source. One block for each compound: values may come before it.

Legend:
S. aureus CVCC 546 [1] = conditions: for FIC: FIC = MICc/MICa; for MICa: MIC of peptide/antibiotic alone, three parallel experiments
Experimental: The synergistic effects of AP138L-arg26 with different antibiotics were evaluated using a checkerboard assay. The synergistic effect was calculated using the FICI as follows: FICI = FIC of AP138L-arg26 + FIC of antibiotic; FIC = MICc/MICa, where MICc is the MIC of the peptide and antibiotic in combination, and MICa is the MIC of the peptide/antibiotic alone (Blier et al. [2010]). Three parallel experiments were performed for each group. The efficacy of combination therapy was defined as FICI ≤ 0.5, 0.5 < FICI ≤ 1, 1 < FICI ≤ 4, and FICI > 4 indicating synergy, addition, no difference, and antagonism, respectively.

S. aureus CVCC 546 [2] = test: Growth curve of S. aureus; format: cell-based, Staphylococcus aureus; conditions: AP138L-arg26 8 µg/mL (2 × MIC), ceftiofur sodium 0.25 µg/mL (1/8 MIC), alone or combined; 1 × 10^5 CFU/mL
Experimental: Samples were taken during the logarithmic growth of S. aureus and diluted to 1 × 10^5 CFU/mL (Delpech et al. [2019]). Different concentrations of AP138L-arg26, ceftiofur sodium, or a combination of them with an equal volume of bacteria were added to a 96-well microplate. The growth curves were recorded using a fully automatic growth curve recording instrument.

[3] = system: Staphylococcus aureus ATCC 25923; test: MIC and MBC, broth microdilution; format: cell-based; conditions: Staphylococcus aureus, ATCC25923
Experimental: (§1) To determine the MIC values of AP138L-arg26, we used the broth microdilution technique as previously described (Andrews. [2001]; Wiegand et al. [2008]). In brief, AP138L-arg26 peptide were diluted from 1280 to 2.5 µg/mL and added to a 96-cells plate with 10 µL per well. The bacteria in the logarithmic stage were diluted to 10^5 CFU/mL with 90 µL per well. […] The MBC method was also based on the CLSI 2021 guidelines.

[4] = system: Staphylococcus aureus ATCC 43300; test: MIC and MBC, broth microdilution; format: cell-based; conditions: Staphylococcus aureus, ATCC43300
Experimental: as §1

[5] = system: Staphylococcus aureus CAAS-FRI-2023-01; test: MIC and MBC, broth microdilution; format: cell-based; conditions: Staphylococcus aureus
Experimental: as §1

[6] = system: Staphylococcus aureus CAAS-FRI-2023-02; test: MIC and MBC, broth microdilution; format: cell-based; conditions: Staphylococcus aureus
Experimental: as §1

[7] = system: Staphylococcus aureus CVCC 546; test: MIC and MBC, broth microdilution; format: cell-based; conditions: Staphylococcus aureus, CVCC546
Experimental: as §1

[8] = system: Staphylococcus aureus E48; test: MIC and MBC, broth microdilution; format: cell-based; conditions: Staphylococcus aureus, E48
Experimental: as §1

[9] = system: Staphylococcus epidermidis ATCC 12228; test: MIC and MBC, broth microdilution; format: cell-based; conditions: Staphylococcus epidermidis, ATCC12228
Experimental: as §1

[10] = system: Staphylococcus epidermidis ATCC 35984; test: MIC and MBC, broth microdilution; format: cell-based; conditions: Staphylococcus epidermidis, ATCC35984
Experimental: as §1

[11] = system: Streptococcus agalactiae ATCC 13813; test: MIC and MBC, broth microdilution; format: cell-based; conditions: Streptococcus agalactiae, ATCC13813
Experimental: as §1

[12] = system: Streptococcus agalactiae CAU-FRI-2022-01; test: MIC and MBC, broth microdilution; format: cell-based; conditions: Streptococcus agalactiae, CAUFRI202201
Experimental: as §1

[13] = system: Streptococcus agalactiae CAU-FRI-2022-02; test: MIC and MBC, broth microdilution; format: cell-based; conditions: Streptococcus agalactiae, CAUFRI202202
Experimental: as §1

[14] = system: Streptococcus dysgalactiae CVCC 3938; test: MIC and MBC, broth microdilution; format: cell-based; conditions: Streptococcus dysgalactiae, CVCC3938
Experimental: as §1

S. aureus ATCC 43300 = test: Post-antibiotic effect (PAE) assay; format: cell-based, Staphylococcus aureus; conditions: PAE = T − C
Excerpt: The method of PAE of AP138L-arg26 against MRSA ATCC 43300 or S. aureus CVCC 546 was described previously (Wang et al. [2018]). The formula is PAE = T − C (T is the time required for the number of colonies in the sample treatment group to increase by tenfold, and C is the time required for the untreated group).

[15] = 99.99% of bacteria killed, plated on MHA, read-out: MBC
[16] = broth microdilution, 10^5 CFU/mL, 37 °C, 18 h, read-out: MIC

- MICc (S. aureus CVCC 546 [1]; in combination AP138L-arg26-ampicillin): 0.0078 µg/mL
Structure (SMILES): CC1(C)S[C@@H]2[C@H](NC(=O)[C@H](N)c3ccccc3)C(=O)N2[C@H]1C(=O)O [Ampicillin]
- FIC (S. aureus CVCC 546 [1]; combination AP138L-arg26-ampicillin): 0.0625

- MICc (S. aureus CVCC 546 [1]; in combination AP138L-arg26-ceftiofur sodium): 0.25 µg/mL
Structure (SMILES): CO/N=C(\C(=O)N[C@@H]1C(=O)N2C(C(=O)[O-])=C(CSC(=O)c3ccco3)CS[C@H]12)c1csc(N)n1.[Na+] [Ceftiofur sodium, ceftiofur sodium]
- effect on the growth of S. aureus CVCC 546 (S. aureus CVCC 546 [2]): little effect on the growth
- FIC (S. aureus CVCC 546 [1]; combination AP138L-arg26-ceftiofur sodium): 0.25

- MICa (S. aureus CVCC 546 [1]): 1 µg/mL
- MICc (S. aureus CVCC 546 [1]; in combination AP138L-arg26-Streptomycin sulfate): 0.5 µg/mL
Structure (SMILES): [H]/N=C(/N)N[C@H]1[C@H](O)[C@@H](O)[C@H](O[C@@H]2O[C@@H](C)[C@](O)(C=O)[C@H]2O[C@@H]2O[C@@H](CO)[C@H](O)[C@@H](O)[C@@H]2NC)[C@@H](N/C(N)=N\[H])[C@@H]1O [Streptomycin sulfate]
- FIC (S. aureus CVCC 546 [1]; combination AP138L-arg26-Streptomycin sulfate): 0.5

Structure (SMILES): CN[C@H](CC(C)C)C(=O)N[C@H]1C(=O)N[C@@H](CC(N)=O)C(=O)N[C@H]2C(=O)N[C@H]3C(=O)N[C@H](C(=O)N[C@H](C(=O)O)c4cc(O)cc(O)c4-c4cc3ccc4O)[C@H](O)c3ccc(c(Cl)c3)Oc3cc2cc(c3O[C@@H]2O[C@H](CO)[C@@H](O)[C@H](O)[C@H]2O[C@H]2C[C@](C)(N)[C@H](O)[C@H](C)O2)Oc2ccc(cc2Cl)[C@H]1O [vancomycin, reference compound]
- MBC [3, 15]: 2 µg/mL (≈ 1.38 µM)
- MIC [3, 16]: 1 µg/mL (≈ 0.69 µM)
- MBC [4, 15]: 1 µg/mL (≈ 0.69 µM)
- MIC [4, 16]: 1 µg/mL (≈ 0.69 µM)
- MBC [5, 15]: 2 µg/mL (≈ 1.38 µM)
- MIC [5, 16]: 1 µg/mL (≈ 0.69 µM)
- MBC [6, 15]: 8 µg/mL (≈ 5.52 µM)
- MIC [6, 16]: 2 µg/mL (≈ 1.38 µM)
- MBC [7, 15]: 1 µg/mL (≈ 0.69 µM)
- MIC [7, 16]: 1 µg/mL (≈ 0.69 µM)
- MBC [8, 15]: 8 µg/mL (≈ 5.52 µM)
- MIC [8, 16]: 1 µg/mL (≈ 0.69 µM)
- MBC [9, 15]: 4 µg/mL (≈ 2.76 µM)
- MIC [9, 16]: 2 µg/mL (≈ 1.38 µM)
- MBC [10, 15]: 4 µg/mL (≈ 2.76 µM)
- MIC [10, 16]: 2 µg/mL (≈ 1.38 µM)
- MBC [11, 15]: 4 µg/mL (≈ 2.76 µM)
- MIC [11, 16]: 2 µg/mL (≈ 1.38 µM)
- MBC [12, 15]: 8 µg/mL (≈ 5.52 µM)
- MIC [12, 16]: 2 µg/mL (≈ 1.38 µM)
- MBC [13, 15]: 4 µg/mL (≈ 2.76 µM)
- MIC [13, 16]: 2 µg/mL (≈ 1.38 µM)
- MBC [14, 15]: 2 µg/mL (≈ 1.38 µM)
- MIC [14, 16]: 2 µg/mL (≈ 1.38 µM)
- PAE (S. aureus ATCC 43300; 1 × MIC): 0.27 h
- PAE (S. aureus ATCC 43300; 2 × MIC): 0.45 h
- PAE (S. aureus ATCC 43300; 4 × MIC): 1.18 h
- MICa (S. aureus CVCC 546 [1]): 1 µg/mL
